# Reference: patent publication US20100113506A1, “COMPOSITION FOR PREVENTING OR TREATING THROMBUS- OR EMBOLUS- ASSOCIATED DISEASE” (priority 2007, published 2010)
# Key:
# [1] = Bleeding time, ear puncture wound (method of Elg et al.); type: in vivo, Japanese white rabbits; details: rabbit ear puncture; EPA-E 300 mg/kg oral 4 weeks, clopidogrel 20 mg/kg single oral dose
# [2] = tested on: platelet aggregation induced by collagen; test: Collagen-induced platelet aggregation in PRP of orally dosed rabbits (ex vivo); set-up: species or system Japanese white rabbits; details: collagen 6 μg/mL, clopidogrel 20 mg/kg single oral dose; for Effect on maximum aggregation rate: EPA-E 300 mg/kg oral 4 weeks; for Aggregation suppressibility: EPA-E 300 mg/kg oral once a day 4 weeks, blood 2 h after clopidogrel
# Description: (§1) After the preliminary keeping, the rabbits were randomly divided into four groups, namely, control group, EPA-E group, clopidogrel group, and combination group. To the EPA-E group and the combination group, EPA-E was orally administered once a day for four weeks at a dose of 300 mg/kg. To the control group and the clopidogrel group, a 5% aqueous solution of gum arabic was orally administered instead of EPA-E. After the last EPA-E or gum arabic administration, the rabbits were fasted overnight, then clopidogrel was orally administered to the clopidogrel group and the combination group at a single dose of 20 mg/kg. To the control group and the EPA-E group, the 5% aqueous solution of gum arabic was orally administered instead of clopidogrel. Two hours after the clopidogrel administration, blood was sampled using a syringe containing citric acid in an amount of a tenth of the syringe volume, and the white blood cell count, red blood cell count, hemoglobin, hematocrit, and platelet count were measured on an automated hematology analyzer (type F-820 from Sysmex Corporation). The blood was centrifuged (at 150×g and at room temperature for 15 minutes) immediately after the above measurement to obtain platelet-rich plasma (PRP). The PRP was further centrifuged (at 1,500×g and at room temperature for 15 minutes) to collect platelet-poor plasma (PPP), and the platelet count was regulated with the PRP and PPP so that it might be […] (final level). The PRP was kept at 37° C. for four minutes, then an ADP (adenosine 5′-diphosphate) solution with a final concentration of 3 μM (MC Medical, Inc.) or a collagen solution with a final concentration of 6 μg/mL (Nycomed) was added thereto as an aggregation inducer so as to observe platelet aggregation using a platelet aggregation analyzer (MCM HEMA TRACER 313M from MC Medical, Inc.). The platelet aggregation activity was evaluated on the basis of maximum aggregation rate, and the suppressibility of platelet aggregation was calculated according to the following equation.
# (§2) Aggregation suppressibility (%)={[maximum aggregation rate (mean) in control group]−[maximum aggregation rate (mean) in experimental group]}/[maximum aggregation rate (mean) in control group]×100.
# (§3) The measurement results set forth for each group are each the mean of the values obtained in 8 or 9 cases plus/minus a standard error. The results were compared between the groups using the Tukey-Kramer method for multiple comparison testing, and the statistical significance was confirmed below a set level of 5%.
# [3] = Prothrombin time (PT) in platelet-poor plasma; type: in vivo, Japanese white rabbits; details: vs control group; EPA-E 300 mg/kg oral 4 weeks, clopidogrel 20 mg/kg single oral dose
# Description: (§4) After the preliminary keeping, the rabbits were randomly divided into four groups, namely, control group, EPA-E group, clopidogrel group, and combination group. To the EPA-E group and the combination group, EPA-E was orally administered once a day for four weeks at a dose of 300 mg/kg. To the control group and the clopidogrel group, a 5% aqueous solution of gum arabic was orally administered instead of EPA-E. After the last EPA-E or gum arabic administration, the rabbits were fasted overnight, then clopidogrel was orally administered to the clopidogrel group and the combination group at a single dose of 20 mg/kg. […] Two hours after the clopidogrel administration, blood was sampled using a syringe containing citric acid in an amount of a tenth of the syringe volume, and the white blood cell count, red blood cell count, hemoglobin, hematocrit, and platelet count were measured on an automated hematology analyzer (type F-820 from Sysmex Corporation). […] The platelet aggregation activity was evaluated on the basis of maximum aggregation rate, and the suppressibility of platelet aggregation was calculated according to the following equation. Platelet-poor plasma (PPP) was measured in terms of prothrombin time (PT) and activated partial thromboplastin time (APTT) as coagulation-related parameters. […]
# [4] = tested on: platelet aggregation induced by ADP; test: ADP-induced platelet aggregation in PRP of orally dosed rabbits (ex vivo); set-up: species or system Japanese white rabbits; details: ADP 3 μM, clopidogrel 20 mg/kg single oral dose; for Aggregation suppressibility: EPA-E 300 mg/kg oral once a day 4 weeks, blood 2 h after clopidogrel; for Effect on maximum aggregation rate: vs control group, EPA-E 300 mg/kg oral 4 weeks
# Description: as §1, §2, §3
# [5] = Activated partial thromboplastin time (APTT) in platelet-poor plasma; type: in vivo, Japanese white rabbits; details: vs control group; EPA-E 300 mg/kg oral 4 weeks, clopidogrel 20 mg/kg single oral dose
# Description: as §4
# [6] = Hematological parameters on automated hematology analyzer; type: in vivo, Japanese white rabbits; details: for Hematocrit / Hemoglobin / Platelet count / Red blood cell count / White blood cell count: mean ± standard error, blood 2 h after clopidogrel, EPA-E 300 mg/kg 4 weeks, clopidogrel 20 mg/kg; for Change of white blood cell count, red blood cell count, hemoglobin, hematocrit and platelet count: vs control group
# Description: After the preliminary keeping, the rabbits were randomly divided into four groups, namely, control group, EPA-E group, clopidogrel group, and combination group. To the EPA-E group and the combination group, EPA-E was orally administered once a day for four weeks at a dose of 300 mg/kg. To the control group and the clopidogrel group, a 5% aqueous solution of gum arabic was orally administered instead of EPA-E. After the last EPA-E or gum arabic administration, the rabbits were fasted overnight, then clopidogrel was orally administered to the clopidogrel group and the combination group at a single dose of 20 mg/kg. To the control group and the EPA-E group, the 5% aqueous solution of gum arabic was orally administered instead of clopidogrel. Two hours after the clopidogrel administration, blood was sampled using a syringe containing citric acid in an amount of a tenth of the syringe volume, and the white blood cell count, red blood cell count, hemoglobin, hematocrit, and platelet count were measured on an automated hematology analyzer (type F-820 from Sysmex Corporation). The blood was centrifuged (at 150×g and at room temperature for 15 minutes) immediately after the above measurement to obtain platelet-rich plasma (PRP). […] The platelet aggregation activity was evaluated on the basis of maximum aggregation rate, and the suppressibility of platelet aggregation was calculated according to the following equation. The measurement results set forth for each group are each the mean of the values obtained in 8 or 9 cases plus/minus a standard error. The results were compared between the groups using the Tukey-Kramer method for multiple comparison testing, and the statistical significance was confirmed below a set level of 5%.
SMILES,Effect on bleeding time [1],Effect on maximum aggregation rate [2],Aggregation suppressibility [2] [%],PT (prothrombin time) change [3],Aggregation suppressibility [4] [%],Effect on maximum aggregation rate [4],APTT (activated partial thromboplastin time) change [5],Hematocrit [6] [%],Hemoglobin [6] [g/dL],Platelet count [6],Red blood cell count [6],White blood cell count [6],"Change of white blood cell count, red blood cell count, hemoglobin, hematocrit and platelet count [6]"
"CC/C=C\C/C=C\C/C=C\C/C=C\C/C=C\CCCC(=O)OCC [EPA-E, ethyl icosapentate]",had no influence on the bleeding time,reduced the maximum aggregation rate significantly in a statistical sense,29,neither PT (prothrombin time) nor APTT (activated partial thromboplastin time) had a statistically significant change,0,had no influence on the maximum aggregation rate,neither PT (prothrombin time) nor APTT (activated partial thromboplastin time) had a statistically significant change,37.3 ± 0.6,13.1 ± 0.2,30.4 ± 1.2 ×10^4/μL,563 ± 10 ×10^4/μL,58.8 ± 5.2 ×10^2/μL,had not a statistically significant change
"COC(=O)[C@H](c1ccccc1Cl)N1CCc2sccc2C1 [clopidogrel, (+)-(s)-methyl 2-(2-chlorophenyl)-2-(4,5,6,7-tetrahydrothieno[3,2-c]pyridin-5-yl) acetate monosulfate]",prolonged the bleeding time significantly in a statistical sense,no differences were seen which were statistically significant,7,neither PT (prothrombin time) nor APTT (activated partial thromboplastin time) had a statistically significant change,29,reduced the maximum aggregation rate,neither PT (prothrombin time) nor APTT (activated partial thromboplastin time) had a statistically significant change,39.3 ± 1.2,13.8 ± 0.4,38.0 ± 2.3 ×10^4/μL,584 ± 17 ×10^4/μL,58.0 ± 4.8 ×10^2/μL,had not a statistically significant change
